Experimental data from patent US20240116921A1, “LACTAM (HETERO)[…] DERIVATIVES AS INHIBITORS OF ERBB2” (EnLiven Therapeutics, Inc., priority 2020, published 2024).
Like-named read-outs stand apart in the source and are kept apart here.

How the values were obtained:
BT-474 = experiment: Cell viability assay (CellTiter Glo), BT-474; assay type: cell-based; details: Homo sapiens, read-out: IC50, cell viability, BT-474
A431 = experiment: Cell viability assay (CellTiter Glo), A431; assay type: cell-based; details: Homo sapiens, A-431, A431 cells, 72 hours
[1] = target: Ba/F3 ERBB2 A775_G776insYVMA (Homo sapiens, UniProt P04626, DUP772-775, cells depend on it); experiment: Cell viability assay, Ba/F3 ERBB2 A775_G776insYVMA; assay type: cell-based, mouse; details: Ba/F3 ERBB2 A775_G776insYVMA cells, 72 hours, CellTiter Glo; Tables B2-B4; read-out: IC50, cell viability, Ba/F3 ERBB2 A775_G776insYVMA
Ba/F3 ERBB2 A775_G776insYVMA, sequence (P04626 with tags, fused parts or gaps DUP772-775): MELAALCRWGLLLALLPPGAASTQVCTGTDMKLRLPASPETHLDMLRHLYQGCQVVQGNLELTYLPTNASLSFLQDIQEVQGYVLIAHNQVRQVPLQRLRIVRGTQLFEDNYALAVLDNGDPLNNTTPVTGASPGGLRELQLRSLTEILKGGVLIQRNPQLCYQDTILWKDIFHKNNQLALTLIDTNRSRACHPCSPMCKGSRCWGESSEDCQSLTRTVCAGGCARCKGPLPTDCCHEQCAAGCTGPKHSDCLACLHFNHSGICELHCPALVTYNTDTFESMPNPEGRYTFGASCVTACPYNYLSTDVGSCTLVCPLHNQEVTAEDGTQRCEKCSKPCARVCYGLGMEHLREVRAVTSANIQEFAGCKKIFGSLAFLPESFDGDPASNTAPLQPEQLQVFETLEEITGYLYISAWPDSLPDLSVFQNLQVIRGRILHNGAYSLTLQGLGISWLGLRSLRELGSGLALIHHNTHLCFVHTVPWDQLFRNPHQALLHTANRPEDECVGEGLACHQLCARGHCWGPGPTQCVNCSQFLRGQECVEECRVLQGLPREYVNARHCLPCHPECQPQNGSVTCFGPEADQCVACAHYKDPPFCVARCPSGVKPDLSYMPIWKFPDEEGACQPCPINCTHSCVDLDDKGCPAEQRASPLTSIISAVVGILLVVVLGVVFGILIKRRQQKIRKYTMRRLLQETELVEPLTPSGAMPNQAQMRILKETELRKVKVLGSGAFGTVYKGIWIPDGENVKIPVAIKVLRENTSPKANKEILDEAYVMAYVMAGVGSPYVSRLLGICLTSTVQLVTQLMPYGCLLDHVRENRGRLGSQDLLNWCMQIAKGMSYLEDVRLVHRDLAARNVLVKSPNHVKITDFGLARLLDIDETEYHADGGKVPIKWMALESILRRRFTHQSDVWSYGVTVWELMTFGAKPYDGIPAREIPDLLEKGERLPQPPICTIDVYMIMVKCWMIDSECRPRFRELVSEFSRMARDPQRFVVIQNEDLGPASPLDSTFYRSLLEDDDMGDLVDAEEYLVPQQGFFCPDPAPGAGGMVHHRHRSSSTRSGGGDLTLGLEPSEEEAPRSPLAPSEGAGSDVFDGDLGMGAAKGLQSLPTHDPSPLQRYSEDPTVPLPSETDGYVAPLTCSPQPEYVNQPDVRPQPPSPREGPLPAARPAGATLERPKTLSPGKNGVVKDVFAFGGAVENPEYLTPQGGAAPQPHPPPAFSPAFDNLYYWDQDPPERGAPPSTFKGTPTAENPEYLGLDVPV
Outline: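 Viability after 72 h compound treatment (37 °C, 5% CO2) was quantified by CellTiter-Glo luminescence of intracellular ATP, with sigmoidal dose-response fitting. Cells were retrovirally engineered Ba/F3 lines whose growth depends on the mutant human ERBB2 in place of IL-3, plated at 3000 per well.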

MDA-MB-175VII = experiment: Cell viability assay (CellTiter Glo), MDA-MB-175VII; assay type: cell-based; details: Homo sapiens, read-out: IC50, cell viability, MDA MB 175VII
Protocol: (§1) Cells were treated with compounds, and cell viability was measured as a metric of kinase inhibition.
(§2) The Ba/F3 cell line is IL-3-dependent mouse cell line derived from the C3H mouse strain. Ba/F3 cell lines were engineered to express human ERBB2 or EGFR kinases, rendering the cells IL-3 independent. The lines were generated via retroviral transduction utilizing a Moloney murine leukemia virus (MMLV) promoter, and constructs are stably integrated into the cell genome. The sequences of the ERBB2 and EGFR genes used were NCBI Reference Sequences NM_004448.3 and NM_005228.3, respectively.
(§3) Similarly, Ba/F3 cell lines engineered to express EGFR, ERBB2, or ERBB2 mutants were grown, harvested, counted and seeded at 3000 cells per well in 96-well plates. A subset of wells contained media only (low control, “LC”).
(§4) Table B1 provides the growth media and number of cells seeded per well for the each cell line.
(§5) Plates were placed in a 37° C., 5% CO2 incubator for 72 hours. Plates were then removed from the incubator and equilibrated for 15 minutes at room temperature. 40 μl of CellTiter Glo reagent (Promega) was added to measure the relative level of metabolically active cells by quantifying intracellular ATP concentrations. Plates were incubated for 30 minutes at room temperature, and luminescence was measured. Percent viability was normalized to a vehicle control only using the following formula: % viability=100×(Lumsample−LumLC)/(LumHC−Lum^LC). Graphical curves were fitted using a nonlinear regression model with a sigmoidal dose response.

Ba/F3 EGFR wt = Ba/F3 EGFR wt (Homo sapiens, UniProt P00533); experiment: Cell viability assay, Ba/F3 EGFR wt; assay type: cell-based, mouse; details: Ba/F3 EGFR wt cells, 72 hours, CellTiter Glo; read-out: IC50, cell viability, Ba/F3 EGFR wt
Ba/F3 EGFR wt, sequence (P00533 whole entry, change not shown): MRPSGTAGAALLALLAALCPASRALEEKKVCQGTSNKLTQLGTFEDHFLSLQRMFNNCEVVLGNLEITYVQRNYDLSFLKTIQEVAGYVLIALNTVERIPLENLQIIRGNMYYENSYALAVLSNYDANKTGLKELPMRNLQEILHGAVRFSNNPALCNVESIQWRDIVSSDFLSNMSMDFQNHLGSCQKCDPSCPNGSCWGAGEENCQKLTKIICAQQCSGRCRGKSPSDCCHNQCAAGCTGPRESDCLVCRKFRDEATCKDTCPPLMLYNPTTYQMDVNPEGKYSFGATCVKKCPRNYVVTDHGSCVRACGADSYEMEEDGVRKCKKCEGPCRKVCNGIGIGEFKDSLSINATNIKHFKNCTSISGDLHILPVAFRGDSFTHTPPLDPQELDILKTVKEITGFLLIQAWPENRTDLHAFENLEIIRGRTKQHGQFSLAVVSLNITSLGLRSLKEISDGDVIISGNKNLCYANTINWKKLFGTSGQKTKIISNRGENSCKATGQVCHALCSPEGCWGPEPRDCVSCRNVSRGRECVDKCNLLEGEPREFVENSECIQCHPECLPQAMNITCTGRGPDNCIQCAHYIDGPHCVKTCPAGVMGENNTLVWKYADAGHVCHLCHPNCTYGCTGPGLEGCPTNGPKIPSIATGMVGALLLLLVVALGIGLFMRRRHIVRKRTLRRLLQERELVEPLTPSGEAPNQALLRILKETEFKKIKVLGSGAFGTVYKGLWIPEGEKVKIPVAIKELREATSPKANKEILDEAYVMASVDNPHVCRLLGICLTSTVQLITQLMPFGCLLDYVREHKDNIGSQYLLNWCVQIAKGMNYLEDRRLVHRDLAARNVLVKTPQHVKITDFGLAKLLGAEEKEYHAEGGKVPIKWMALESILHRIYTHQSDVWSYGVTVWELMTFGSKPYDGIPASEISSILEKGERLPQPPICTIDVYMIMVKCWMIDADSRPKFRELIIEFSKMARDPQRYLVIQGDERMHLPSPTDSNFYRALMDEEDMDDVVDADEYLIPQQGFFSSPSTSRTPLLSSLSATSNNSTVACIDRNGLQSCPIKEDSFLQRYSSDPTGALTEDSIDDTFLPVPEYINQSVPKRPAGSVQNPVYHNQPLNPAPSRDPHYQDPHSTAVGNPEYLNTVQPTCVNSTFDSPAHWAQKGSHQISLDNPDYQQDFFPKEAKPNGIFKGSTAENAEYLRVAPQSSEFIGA
Protocol: as §1, §2, §3, §4
Plates were placed in a 37° C., 5% CO2 incubator for 72 hours. Plates were then removed from the incubator and equilibrated for 15 minutes at room temperature. 40 μl of CellTiter Glo reagent (Promega) was added to measure the relative level of metabolically active cells by quantifying intracellular ATP concentrations. Plates were incubated for 30 minutes at room temperature, and luminescence was measured. […]

Ba/F3 ERBB2-T798M = Ba/F3 ERBB2-T798M (Homo sapiens, UniProt P04626, T798M, cells depend on it); experiment: Cell viability assay, Ba/F3 ERBB2-T798M; assay type: cell-based, mouse; details: 72 hours, CellTiter Glo, read-out: IC50, cell viability, Ba/F3 ERBB2-T798M
Protocol: as §1, §2, §3, §4, §5

[2] = target: Ba/F3 ERBB2-V777_G778insGC (Homo sapiens, UniProt P04626, INS778CG, cells depend on it); experiment: Cell viability assay, Ba/F3 ERBB2-V777_G778insGC; assay type: cell-based, mouse; details: 72 hours, CellTiter Glo, read-out: IC50, cell viability, Ba/F3 ERBB2-V777_G778insGC
Protocol: as §1, §2, §3, §4, §5

Ba/F3 ERBB2-L869R = Ba/F3 ERBB2-L869R (Homo sapiens, UniProt P04626, L869R, cells depend on it); experiment: Cell viability assay, Ba/F3 ERBB2-L869R; assay type: cell-based, mouse; details: 72 hours, CellTiter Glo, read-out: IC50, cell viability, Ba/F3 ERBB2-L869R
Protocol: as §1, §2, §3, §4, §5

Ba/F3 ERBB2-G776VC = Ba/F3 ERBB2-G776VC (Homo sapiens, UniProt P04626, DELINS776-776VC, cells depend on it); experiment: Cell viability assay, Ba/F3 ERBB2-G776VC; assay type: cell-based, mouse; details: 72 hours, CellTiter Glo, read-out: IC50, cell viability, Ba/F3 ERBB2-G776VC
Protocol: as §1, §2, §3, §4, §5

Ba/F3 ERBB2-V777L = Ba/F3 ERBB2-V777L (Homo sapiens, UniProt P04626, V777L, cells depend on it); experiment: Cell viability assay, Ba/F3 ERBB2-V777L; assay type: cell-based, mouse; details: 72 hours, CellTiter Glo, read-out: IC50, cell viability, Ba/F3 ERBB2-V777L
Protocol: as §1, §2, §3, §4, §5

[3] = target: Ba/F3 ERBB2-P780_Y781insGSP (Homo sapiens, UniProt P04626, DUP778-780, cells depend on it); experiment: Cell viability assay, Ba/F3 ERBB2-P780_Y781insGSP; assay type: cell-based, mouse; details: 72 hours, CellTiter Glo, read-out: IC50, cell viability, Ba/F3 ERBB2-P780_Y781insGSP
Protocol: as §1, §2, §3, §4
as §5, with “Percent viability was normalized to a vehicle control only using the following formula: % viability=100×(Lumsample−LumLC)/(LumHC−Lum^LC).” left out

Ba/F3 ERBB2-L755S = Ba/F3 ERBB2-L755S (Homo sapiens, UniProt P04626, L755S, cells depend on it); experiment: Cell viability assay, Ba/F3 ERBB2-L755S; assay type: cell-based, mouse; details: 72 hours, CellTiter Glo, read-out: IC50, cell viability, Ba/F3 ERBB2-L755S
Protocol: as §1, §2, §3, §4, §5

Ba/F3 ERBB2 wt = Ba/F3 ERBB2 wt (Homo sapiens, UniProt P04626); experiment: Cell viability assay, Ba/F3 ERBB2 wt; assay type: cell-based, mouse; details: Ba/F3 ERBB2 wt cells, 72 hours, CellTiter Glo; read-out: IC50, cell viability, Ba/F3 ERBB2 wt
Protocol: as §1, §2, §3, §4, §5

[4] = target: T1, phosphorylated ERBB2 (pERBB2) (Homo sapiens, UniProt P04626); experiment: Detection of phosphorylated ERBB2 (pERBB2) by ELISA in BT-474 cells; assay type: cell-based; details: four hours incubation
T1 construct: endogenous in cells; host or cells: BT-474
T1 sequence (P04626 23-1255): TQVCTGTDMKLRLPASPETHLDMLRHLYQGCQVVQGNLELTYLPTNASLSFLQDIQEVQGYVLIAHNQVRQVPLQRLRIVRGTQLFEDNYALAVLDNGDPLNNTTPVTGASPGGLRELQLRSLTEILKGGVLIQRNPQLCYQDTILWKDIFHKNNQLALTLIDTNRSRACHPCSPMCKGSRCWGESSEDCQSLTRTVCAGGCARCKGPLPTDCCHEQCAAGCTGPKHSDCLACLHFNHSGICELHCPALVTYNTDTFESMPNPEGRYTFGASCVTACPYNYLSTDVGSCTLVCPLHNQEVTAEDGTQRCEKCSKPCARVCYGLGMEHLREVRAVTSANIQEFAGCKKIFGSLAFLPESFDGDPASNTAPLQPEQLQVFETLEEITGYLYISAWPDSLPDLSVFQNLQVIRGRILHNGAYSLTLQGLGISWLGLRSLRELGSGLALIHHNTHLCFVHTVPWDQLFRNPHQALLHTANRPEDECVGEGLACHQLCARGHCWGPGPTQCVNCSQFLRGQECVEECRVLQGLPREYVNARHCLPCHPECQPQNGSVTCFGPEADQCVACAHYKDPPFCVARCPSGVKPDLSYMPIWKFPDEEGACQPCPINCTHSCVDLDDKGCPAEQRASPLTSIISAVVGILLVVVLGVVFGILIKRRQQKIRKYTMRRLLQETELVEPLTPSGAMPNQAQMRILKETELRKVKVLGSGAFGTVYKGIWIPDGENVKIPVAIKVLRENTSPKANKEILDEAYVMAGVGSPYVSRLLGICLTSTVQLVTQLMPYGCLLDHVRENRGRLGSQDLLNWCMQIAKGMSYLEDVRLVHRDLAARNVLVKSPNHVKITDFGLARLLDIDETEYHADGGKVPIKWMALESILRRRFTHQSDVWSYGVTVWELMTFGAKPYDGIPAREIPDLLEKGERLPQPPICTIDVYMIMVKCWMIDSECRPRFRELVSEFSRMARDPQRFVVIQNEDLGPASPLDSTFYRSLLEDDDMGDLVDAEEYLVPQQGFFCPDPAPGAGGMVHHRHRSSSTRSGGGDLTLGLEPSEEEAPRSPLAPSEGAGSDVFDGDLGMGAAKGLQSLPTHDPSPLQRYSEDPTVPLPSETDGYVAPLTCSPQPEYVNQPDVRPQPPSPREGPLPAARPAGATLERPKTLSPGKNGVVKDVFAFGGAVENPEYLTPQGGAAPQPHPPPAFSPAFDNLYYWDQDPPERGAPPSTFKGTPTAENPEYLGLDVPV
Outline: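 Phospho-ERBB2 in lysates was quantified by sandwich ELISA (A450, TMB) after 4 h compound exposure at 37 °C of BT-474 cells seeded at 2.0×10^4 per well. Compounds tested at 10 µM to 0.01 nM final in four-fold steps; activity normalized to DMSO (0.1%) high and cell-free low controls.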

[5] = target: T2, phosphorylated EGFR (pEGFR) (Homo sapiens, UniProt P00533); experiment: Detection of phosphorylated EGFR (pEGFR) in EGF-stimulated A431 cells; assay type: cell-based; details: A431 cells (10% FBS), 4 hours incubation, EGF 30 ng/mL 10 minutes, AlphaLISA
T2 construct: performed to measure phosphorylated EGFR levels using A431 cells (10% FBS); endogenous in cells; host or cells: A431
T2 sequence (P00533 25-1210): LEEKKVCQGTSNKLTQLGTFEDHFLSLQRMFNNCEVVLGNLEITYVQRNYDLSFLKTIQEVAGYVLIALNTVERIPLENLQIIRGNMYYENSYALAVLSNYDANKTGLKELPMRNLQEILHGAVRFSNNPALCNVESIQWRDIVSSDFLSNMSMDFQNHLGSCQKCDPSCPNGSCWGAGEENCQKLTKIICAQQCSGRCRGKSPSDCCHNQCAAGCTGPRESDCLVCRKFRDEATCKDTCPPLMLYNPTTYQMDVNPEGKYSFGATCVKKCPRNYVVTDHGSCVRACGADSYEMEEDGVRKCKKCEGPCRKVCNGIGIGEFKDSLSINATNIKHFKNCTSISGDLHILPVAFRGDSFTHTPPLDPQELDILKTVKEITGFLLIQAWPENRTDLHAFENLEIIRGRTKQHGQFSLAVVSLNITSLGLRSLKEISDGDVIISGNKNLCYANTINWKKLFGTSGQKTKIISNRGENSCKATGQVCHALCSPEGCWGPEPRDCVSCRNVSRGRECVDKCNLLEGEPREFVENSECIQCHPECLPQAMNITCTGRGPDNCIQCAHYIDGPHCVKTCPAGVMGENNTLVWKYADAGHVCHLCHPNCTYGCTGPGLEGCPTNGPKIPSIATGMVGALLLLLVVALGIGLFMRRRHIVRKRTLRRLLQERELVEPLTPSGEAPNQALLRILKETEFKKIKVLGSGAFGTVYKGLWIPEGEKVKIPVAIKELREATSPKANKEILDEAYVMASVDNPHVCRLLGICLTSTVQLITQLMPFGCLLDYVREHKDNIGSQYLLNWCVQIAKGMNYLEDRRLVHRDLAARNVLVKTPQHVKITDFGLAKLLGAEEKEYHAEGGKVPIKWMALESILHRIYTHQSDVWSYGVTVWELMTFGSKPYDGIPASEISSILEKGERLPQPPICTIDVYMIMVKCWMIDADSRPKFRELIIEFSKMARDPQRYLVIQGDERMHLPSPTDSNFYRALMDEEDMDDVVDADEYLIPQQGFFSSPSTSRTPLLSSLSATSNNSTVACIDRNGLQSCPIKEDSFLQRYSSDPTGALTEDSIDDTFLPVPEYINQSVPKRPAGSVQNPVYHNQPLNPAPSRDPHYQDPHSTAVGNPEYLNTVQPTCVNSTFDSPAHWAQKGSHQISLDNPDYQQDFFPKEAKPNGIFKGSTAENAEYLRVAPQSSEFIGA
Outline: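 AlphaLISA read-out of EGFR phosphorylation after a 10-min EGF pulse (30 ng/mL final). A431 cells (10% FBS) had been exposed to compound for 4 h at 37 °C. IC50 was fitted from % inhibition normalised to DMSO and staurosporine control lysates.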

[6] = BT-474 cells, 72 hours, CellTiter Glo

IC50 (BT-474; [6]) [nM]	IC50 (A431) [nM]	Compound	GI50 [1] [nM]	further results
16.1	> 6520	C=C1CCN(c2ccc3ncnc(Nc4ccc(Oc5cnc(C)cn5)c(C)c4)c3c2)C1=O [Compound 6, 1-[4-([3-methyl-4-[(5-methylpyrazin-2-yl)oxy]phenyl]amino)quinazolin-6-yl]-3-methylidenepyrrolidin-2-one]	> 1000	–
52.9	7500	C=C1CCN(c2ccc3ncnc(Nc4ccc(Cc5ccc(C)nc5)cc4)c3c2)C1=O [Compound 8, 3-methylidene-1-[4-([4-[(6-methylpyridin-3-yl)methyl]phenyl]amino)quinazolin-6-yl]pyrrolidin-2-one]	–	–
44.7	> 10000	C=C1CCN(c2ccc3ncnc(Nc4ccc(Cc5ccn6ncnc6c5)cc4)c3c2)C1=O [Compound 9, 3-methylidene-1-[4-[(4-[[1,2,4]triazolo[1,5-a]pyridin-7-ylmethyl]phenyl)amino]quinazolin-6-yl]pyrrolidin-2-one]	–	–
–	> 10000	Cc1cc(Nc2ncnc3ccc(NC4=NC(C)(C)CO4)cc23)ccc1Oc1ccn2ncnc2c1 [Tucatinib, tucatinib, reference compound]	–	IC50 (MDA-MB-175VII; MDA MB 175VII cells, 72 hours, CellTiter Glo): 89 nM; GI50 (Ba/F3 EGFR wt): > 10000 nM
19.7	1140	C=C1CCN(c2ccc3ncnc(Nc4ccc(Oc5ccc(C)nc5)c(C)c4)c3c2)C1=O [Compound 3, 1-[4-([3-methyl-4-[(6-methylpyridin-3-yl)oxy]phenyl]amino)quinazolin-6-yl]-3-methylidenepyrrolidin-2-one]	202	GI50 (Ba/F3 ERBB2-T798M): 656 nM; GI50 [2]: 3.8 nM; GI50 (Ba/F3 ERBB2-L869R): 47 nM; GI50 (Ba/F3 ERBB2-G776VC): 40 nM; GI50 (Ba/F3 ERBB2-V777L): 4.7 nM; GI50 [3]: 13 nM; GI50 (Ba/F3 ERBB2-L755S): 172 nM; GI50 (Ba/F3 ERBB2 wt): 11 nM
7670	6510	C=C1CCN(c2ccc3ncnc(Nc4ccc(Oc5ccn6ncnc6c5)c(F)c4)c3c2)C1=O [Compound 11, 1-[4-[(3-fluoro-4-[[1,2,4]triazolo[1,5-a]pyridin-7-yloxy]phenyl)amino]quinazolin-6-yl]-3-methylidenepyrrolidin-2-one]	–	–
31.7	> 10000	C=C1CCN(c2ccc3ncnc(Nc4ccc(Oc5ccn6ncnc6c5)c(C)c4)c3c2F)C1=O [Compound 7, 1-[5-fluoro-4-[(3-methyl-4-[[1,2,4]triazolo[1,5-a]pyridin-7-yloxy]phenyl)amino]quinazolin-6-yl]-3-methylidenepyrrolidin-2-one]	> 1000	IC50 [4]: 109 nM
20.4	7650	C=C1CCN(c2ccc3ncnc(Nc4ccc(Oc5ccn(C(F)F)c(=O)c5)c(C)c4)c3c2)C1=O [Compound 12, 1-(difluoromethyl)-4-(2-methyl-4-[[6-(3-methylidene-2-oxopyrrolidin-1-yl)quinazolin-4-yl]amino]phenoxy)pyridin-2-one]	113	–
27.1	673	C=C1CCN(c2ccc3ncnc(Nc4ccc(Oc5ccn6ncnc6c5)c(Cl)c4)c3c2)C1=O [Compound 10, 1-[4-[(3-chloro-4-[[1,2,4]triazolo[1,5-a]pyridin-7-yloxy]phenyl)amino]quinazolin-6-yl]-3-methylidenepyrrolidin-2-one]	–	–
–	–	CCOc1cc2ncc(C#N)c(Nc3ccc(OCc4ccccn4)c(Cl)c3)c2cc1NC(=O)/C=C/CN(C)C [Neratinib, neratinib, reference compound]	–	IC50 (BT-474; BT-474, 72 h): 2.2 nM; IC50 (MDA-MB-175VII; MDA-MB-175-VII, 72 h): 7.1 nM
3.27	–	C=C1CCN(c2ccc3ncnc(Nc4cc(C)c(Oc5ccn6ncnc6c5)cc4F)c3c2)C1=O [Compound 15, 1-[4 [(2-fluoro-5-methyl-4-[[1,2,4]triazolo[1,5-a]pyridin-7-yloxy]phenyl)amino]quinazolin-6-yl]-3-methylidenepyrrolidin-2-one]	245	IC50 [5]: 1250 nM; IC50 [4]: 8.15 nM
27.8	> 10000	C=C1CCN(c2ccc3ncnc(Nc4ccc(Oc5ccn(C)c(=O)c5)c(C)c4)c3c2)C1=O [Compound 5, 1-methyl-4-(2-methyl-4-[[6-(3-methylidene-2-oxopyrrolidin-1-yl)quinazolin-4-yl]amino]phenoxy)pyridin-2-one]	236	–
